Converted amounts (≈) assume the structure as drawn. Where two headings read alike, the source gives them in different places.
How the values were obtained:
[1] = tested on: Staphylococcus aureus MS9861; assay: MIC by tube dilution method in brain heart infusion broth; assay type: cell-based
Protocol: (§1) The minimum growth inhibitory concentrations (MIC) of the compounds (I) against various microorganisms were measured by a tube dilution method in a brain heart infusion broth (pH 7.5) as a medium.

[2] = tested on: Klebsiella pneumoniae PCI602; assay: as above; assay type: cell-based
Protocol: as §1

[3] = tested on: Bacillus subtilis NRRL B-558; assay: as above; assay type: cell-based
Protocol: as §1

[4] = tested on: Staphylococcus aureus 209P; assay: as above; assay type: cell-based
Protocol: as §1

[5] = set-up: species or system mice; details: mouse, in vivo, po
Protocol: • (2) Concentration in the blood • (2-1) The concentration of the antibiotic YT-3927 of formula (I-a) in the blood was measured by bioassay with […] lutea using mice. […] Then, periodically, the concentration of the antibiotic YT-3927 in the blood was measured. The peak of the blood concentration was noted 1.5 to 2 hours after the administration, and at the peak, the concentration was […]. In contrast, in the same experiment with tylosin, the peak was noted 1.5 to 2 hours later, but the concentration was less than one-fifth of that of the antibiotic YT-3927. • (2-2) The concentration of each of the antibiotic YT-3927 derivatives of formula (I-b) in the blood was measured by bioassay with […] lutea using mice. […] The concentration of the derivative (I-b) in the blood was periodically measured. The concentration of each of the compounds (I-b) 2 hours after the administration is shown in Table 3. [formula] • (3) Toxicity

[6] = tested on: Staphylococcus aureus MS10225; assay: MIC by tube dilution method in brain heart infusion broth; assay type: cell-based; details: Staphylococcus aureus MS10225 (resistant to tylosin); brain heart infusion broth pH 7.5; read-out: Minimum growth inhibitory concentration
Protocol: as §1

[7] = tested on: Corynebacterium bovis 1810; assay: as above; assay type: cell-based; details: Corynebacterium bovis 1810; brain heart infusion broth pH 7.5; read-out: Minimum growth inhibitory concentration
Protocol: as §1

[8] = tested on: Shigella dysenteriae JS 11910; assay: as above; assay type: cell-based; details: JS11910, pH 7.5, read-out: Minimum growth inhibitory concentration
Protocol: as §1

Sartina lutea PCI 1001 = assay: as above; assay type: cell-based; details: Sartina lutea PCI 1001; brain heart infusion broth pH 7.5; read-out: Minimum growth inhibitory concentration
Protocol: as §1

Escherichia coli NIHJ = assay: as above; assay type: cell-based; details: Escherichia coli NIHJ; brain heart infusion broth pH 7.5; read-out: Minimum growth inhibitory concentration
Protocol: as §1

[9] = tested on: Mycoplasma gallisepticum KP-13; assay: as above; assay type: cell-based; details: Mycoplasmoides gallisepticum, KP13; Mycoplasma gallisepticum KP-13; brain heart infusion broth pH 7.5; read-out: Minimum growth inhibitory concentration
Protocol: as §1

[10] = MS9861, pH 7.5, read-out: Antimicrobial activity (MIC) Staphylococcus aureus MS9861
[11] = Klebsiella pneumoniae, PCI602, pH 7.5, read-out: Antimicrobial activity (MIC) Klebsiella pneumonae PCI602
[12] = Bacillus subtilis, NRRLB558, pH 7.5, read-out: Antimicrobial activity (MIC) Bacillus subtilis NRRL B558
[13] = Staphylococcus aureus, 209P, pH 7.5, read-out: Antimicrobial activity (MIC) Staphylococcus aureus 209P

MIC [1, 10] [mg/L]	MIC [2, 11] [mg/L]	MIC [3, 12] [mg/L]	MIC [4, 13] [mg/L]	SMILES	other results
0.8 (≈ 0.87 µM)	6.3 (≈ 6.85 µM)	< 0.2	< 0.2	CCC1OC(=O)CC(O)C(C)C(OC2OC(C)C(OC3CC(C)(OC(C)=O)C(OC(=O)CSc4ccncc4)C(C)O3)C(N(C)C)C2O)C(CC=O)CC(C)C(=O)C=CC(C)=CC1C (stereo not shown)	
3.1 (≈ 3.71 µM)	12.5 (≈ 15 µM)	0.2 (≈ 0.239 µM)	0.8 (≈ 0.957 µM)	CCC1OC(=O)CC(O)C(C)C(OC2OC(C)C(OC3CC(C)(O)C(OC(=O)C4CCCCC4)C(C)O3)C(N(C)C)C2O)C(CC=O)CC(C)C(=O)/C=C/C(C)=C/C1C (stereo not shown)	
1.6 (≈ 1.88 µM)	3.1 (≈ 3.65 µM)	0.4 (≈ 0.471 µM)	0.2 (≈ 0.235 µM)	CCC1OC(=O)CC(O)C(C)C(OC2OC(C)C(OC3CC(C)(O)C(OC(=O)Cc4cccs4)C(C)O3)C(N(C)C)C2O)C(CC=O)CC(C)C(=O)C=CC(C)=CC1C (stereo not shown)	
3.1 (≈ 3.67 µM)	6.3 (≈ 7.46 µM)	0.8 (≈ 0.947 µM)	0.8 (≈ 0.947 µM)	CCC1OC(=O)CC(O)C(C)C(OC2OC(C)C(OC3CC(C)(O)C(OC(=O)Nc4ccccc4)C(C)O3)C(N(C)C)C2O)C(CC=O)CC(C)C(=O)/C=C/C(C)=C/C1C (stereo not shown)	
3.1 (≈ 3.83 µM)	3.1 (≈ 3.83 µM)	0.4 (≈ 0.494 µM)	1.6 (≈ 1.98 µM)	CCC1OC(=O)CC(O)C(C)C(OC2OC(C)C(OC3CC(C)(O)C(OC4CCCCO4)C(C)O3)C(N(C)C)C2O)C(CC=O)CC(C)C(=O)/C=C/C(C)=C/C1C (stereo not shown)	
6.3 (≈ 7.39 µM)	25 (≈ 29.3 µM)	0.8 (≈ 0.939 µM)	0.4 (≈ 0.469 µM)	CCC1OC(=O)CC(OC(C)=O)C(C)C(OC2OC(C)C(OC3CC(C)(O)C(OC(=O)CC(C)C)C(C)O3)C(N(C)C)C2O)C(CC=O)CC(C)C(=O)C=CC(C)=CC1C (stereo not shown) [R1=COCH3; R2=H; YR3=COCH2CH(CH3)2, 3-acetyl-4"-isovaleryl YT-3927]	
1.6 (≈ 1.82 µM)	3.1 (≈ 3.53 µM)	< 0.2	< 0.2	CCC1OC(=O)CC(O)C(C)C(OC2OC(C)C(OC3CC(C)(O)C(OC(=O)CSc4ccncc4)C(C)O3)C(N(C)C)C2O)C(CC=O)CC(C)C(=O)C=CC(C)=CC1C (stereo not shown)	
0.8 (≈ 0.947 µM)	1.6 (≈ 1.89 µM)	< 0.2	< 0.2	CCC1OC(=O)CC(O)C(C)C(OC2OC(C)C(OC3CC(C)(O)C(OC(=O)Cc4cccnc4)C(C)O3)C(N(C)C)C2O)C(CC=O)CC(C)C(=O)C=CC(C)=CC1C (stereo not shown)	
				CC[C@H]1OC(=O)C[C@@H](O)[C@H](C)[C@@H](O[C@@H]2O[C@H](C)[C@@H](O[C@H]3C[C@@](C)(O)[C@@H](O)[C@H](C)O3)[C@H](N(C)C)[C@H]2O)[C@@H](CC=O)C[C@@H](C)C(=O)/C=C/C(C)=C/[C@@H]1CO[C@@H]1O[C@H](C)[C@@H](O)[C@@H](OC)[C@H]1OC [Tylosin, reference compound]	peak concentration in the blood as a fraction of that of the antibiotic YT-3927 [5]: less than one-fifth; MIC [6]: 3.12 mg/L (≈ 3.41 µM); MIC ([1]; MS9861, Table 2-2, brain heart infusion broth pH 7.5, read-out: Antimicrobial activity (MIC) Staphylococcus aureus MS9861): 6.3 mg/L (≈ 6.88 µM); MIC ([2]; Klebsiella pneumoniae PCI602, brain heart infusion broth pH 7.5, Table 2-1, read-out: Minimum growth inhibitory concentration): 25 mg/L (≈ 27.3 µM); MIC ([2]; Klebsiella pneumoniae, PCI602, Table 2-2, brain heart infusion broth pH 7.5, read-out: Antimicrobial activity (MIC) Klebsiella pneumonae PCI602): 25 mg/L (≈ 27.3 µM); MIC [7]: < 0.2 mg/L; MIC [8]: 25 mg/L (≈ 27.3 µM); MIC (Sartina lutea PCI 1001): < 0.2 mg/L; MIC ([3]; Bacillus subtilis, NRRLB558, Table 2-2, brain heart infusion broth pH 7.5, read-out: Antimicrobial activity (MIC) Bacillus subtilis NRRL B558): 0.8 mg/L (≈ 0.873 µM); MIC ([3]; NRRLB558, Bacillus subtilis NRRL B-558, brain heart infusion broth pH 7.5, Table 2-1, read-out: Minimum growth inhibitory concentration): 0.78 mg/L (≈ 0.851 µM); MIC (Escherichia coli NIHJ): 100 mg/L (≈ 109 µM); MIC [9]: 0.02 mg/L (≈ 0.0218 µM); MIC ([4]; Staphylococcus aureus 209P, brain heart infusion broth pH 7.5, Table 2-1, read-out: Minimum growth inhibitory concentration): 0.78 mg/L (≈ 0.851 µM); MIC ([4]; Staphylococcus aureus, 209P, Table 2-2, brain heart infusion broth pH 7.5, read-out: Antimicrobial activity (MIC) Staphylococcus aureus 209P): 0.8 mg/L (≈ 0.873 µM)
